Assays:
Assay in all cases: relative viability (nuclei count vs DMSO), 5 days (fraction); higher = more cells survive
Wnt-C59 + Dasatinib = compound: CC1=NC=CC(=C1)C2=CC=C(C=C2)CC(=O)NC3=CC=C(C=C3)C4=CN=CC=C4 [Wnt-C59] + Cc1nc(Nc2ncc(C(=O)Nc3c(C)cccc3Cl)s2)cc(N2CCN(CCO)CC2)n1 [Dasatinib] (partner 0.075 µM)
Method in brief: (§1)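 Relative viability is defined as nuclei in treated wells over nuclei in vehicle wells. Duplicate plates were run and medians reported. Lung cancer cell lines in 1536-well plates were dosed by pin tool one day after seeding, with one drug or with a fixed anchor-drug dose plus five library-drug doses (not always all listed) in √10 steps, and nuclei were counted after 5 days.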

Lapatinib + Foretinib = compound: CS(=O)(=O)CCNCc1ccc(-c2ccc3ncnc(Nc4ccc(OCc5cccc(F)c5)c(Cl)c4)c3c2)o1 [Lapatinib] + COc1cc2c(Oc3ccc(NC(=O)C4(C(=O)Nc5ccc(F)cc5)CC4)cc3F)ccnc2cc1OCCCN1CCOCC1 [Foretinib] (partner 0.25 µM)
Method in brief: as §1

Wnt-C59 + Tozasertib = compound: CC1=NC=CC(=C1)C2=CC=C(C=C2)CC(=O)NC3=CC=C(C=C3)C4=CN=CC=C4 [Wnt-C59] + Cc1cc(Nc2cc(N3CCN(C)CC3)nc(Sc3ccc(NC(=O)C4CC4)cc3)n2)n[nH]1 [Tozasertib] (partner 0.1 µM)
Method in brief: as §1

Lapatinib + Pictilisib = compound: CS(=O)(=O)CCNCc1ccc(-c2ccc3ncnc(Nc4ccc(OCc5cccc(F)c5)c(Cl)c4)c3c2)o1 [Lapatinib] + CS(=O)(=O)N1CCN(Cc2cc3nc(-c4cccc5[nH]ncc45)nc(N4CCOCC4)c3s2)CC1 [Pictilisib] (partner 1 µM)
Method in brief: as §1

Cell Line	relative viability (Wnt-C59 + Dasatinib; first compound 0.001 µM)	relative viability (Wnt-C59 + Dasatinib; first compound 0.01 µM)	relative viability (Wnt-C59 + Dasatinib; first compound 0.03162 µM)	relative viability (Wnt-C59 + Dasatinib; first compound 0.1 µM)	relative viability (Lapatinib + Foretinib; first compound 0.2 µM)	relative viability (Lapatinib + Foretinib; first compound 0.6325 µM)	relative viability (Lapatinib + Foretinib; first compound 2 µM)	relative viability (Wnt-C59 + Tozasertib; first compound 0.001 µM)	relative viability (Wnt-C59 + Tozasertib; first compound 0.01 µM)	relative viability (Wnt-C59 + Tozasertib; first compound 0.03162 µM)	relative viability (Wnt-C59 + Tozasertib; first compound 0.1 µM)	relative viability (Lapatinib + Pictilisib; first compound 0.06325 µM)	relative viability (Lapatinib + Pictilisib; first compound 0.2 µM)	relative viability (Lapatinib + Pictilisib; first compound 0.6325 µM)	relative viability (Lapatinib + Pictilisib; first compound 2 µM)	relative viability (Lapatinib + Foretinib; first compound 0.02 µM)	relative viability (Lapatinib + Foretinib; first compound 0.06325 µM)	relative viability (Lapatinib + Pictilisib; first compound 0.02 µM)
NCI-H2126	0.658	0.592	0.647	0.61	1.13	1.03	0.612	0.882	0.876	0.874	0.82	0.402	0.474	0.49	0.431			
EMC-BAC-2	0.327	0.36	0.34	0.341	0.969	0.86	0.857	0.341	0.274	0.322	0.306	0.433	0.504	0.581	0.493	0.953	0.844	0.355
NCI-H520	0.217	0.189	0.208	0.174	0.855	1.01	0.67	0.434	0.54	0.496	0.43	0.285	0.269	0.332	0.348	0.891	0.672	0.308
LXF-289	0.251	0.25	0.231	0.221	0.967	0.948	0.851	0.22	0.221	0.182	0.194	0.717	0.744	0.784	0.737	0.996	0.953	0.762
EPLC-272H	0.399	0.269	0.399	0.36	0.542	0.687	0.325	0.297	0.25	0.362	0.276	0.207	0.386	0.381	0.293			
NCI-H838	0.291	0.29	0.288	0.302	1.14	1.06	0.866	0.332	0.247	0.293	0.263	0.409	0.505	0.449	0.458	1.1	0.951	0.48
NCI-H2405	0.207	0.232	0.221	0.233	1.05	1.02	0.92	0.729	0.672	0.778	0.699	0.412	0.428	0.398	0.397	1.04	0.911	
LC-2-ad	0.696	0.73	0.53	0.559	0.872	0.769	0.567	0.403	0.45	0.478	0.434	0.425	0.543	0.431	0.322		0.655	
NCI-H3122	0.824	0.951	0.893	0.894	0.96	0.872	0.928	0.409	0.386	0.401	0.377	0.481	0.636	0.603	0.751	0.944	0.901	0.564
NCI-H727	0.298		0.363	0.388	0.673	0.708	0.691	0.702	0.547	0.586	0.565	0.246	0.434	0.357	0.343	0.617		0.339

Source: the supplement of paper PMC10307832
